For assay [1], the target named is T1, DrTS (trehalose synthase) (Deinococcus radiodurans, UniProt I3NX86).
T1 construct: full length, about 552 residues plus vector linkers (residues 1-5 disordered); pET-23a(+), Ni-NTA purified, E. coli BL21 (DE3); homodimer
T1 sequence (I3NX86 1-552): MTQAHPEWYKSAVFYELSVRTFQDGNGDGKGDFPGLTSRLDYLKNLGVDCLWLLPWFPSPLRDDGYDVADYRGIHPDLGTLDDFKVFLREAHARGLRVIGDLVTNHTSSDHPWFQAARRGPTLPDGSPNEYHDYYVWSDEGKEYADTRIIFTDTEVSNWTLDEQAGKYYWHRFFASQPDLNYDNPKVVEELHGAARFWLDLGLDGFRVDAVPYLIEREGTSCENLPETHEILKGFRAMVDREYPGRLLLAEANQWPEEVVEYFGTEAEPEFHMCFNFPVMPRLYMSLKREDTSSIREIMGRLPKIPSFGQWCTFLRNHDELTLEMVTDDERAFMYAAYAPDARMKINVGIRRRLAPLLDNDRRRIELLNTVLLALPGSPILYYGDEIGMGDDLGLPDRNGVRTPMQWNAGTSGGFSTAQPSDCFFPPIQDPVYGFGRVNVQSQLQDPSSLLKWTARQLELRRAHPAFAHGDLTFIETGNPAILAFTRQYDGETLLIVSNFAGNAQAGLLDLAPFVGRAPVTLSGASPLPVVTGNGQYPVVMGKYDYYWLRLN
Put plainly: isomerase assay (trehalose from maltose), HPLC with refractive-index detection. Format: biochemical.

Assay [2] addresses Deinococcus radiodurans trehalose synthase, wild type (Deinococcus radiodurans). Put plainly: AUC; sedimentation velocity, 293 K, 42 000 rev/min; enzyme 0.1 mg/ml in 20 mM Tris-HCl pH 7.5, 100 mM NaCl; c(s) distribution with SEDFIT.

What is called IC50 is the concentration at which inhibition is half-maximal. A lower IC50 goes with inhibition by little substance. What is called stoichiometry N is a count of units in the complex or per binding partner.

In turn, `NC(CO)(CO)CO` [Tris] gave an IC50 in assay [1] of 4.88 mM.
“Deinococcus radiodurans trehalose synthase, wild type (enzyme)”: the stoichiometry N in assay [2] is 2.

The values are drawn from PMC4257617, “Structures of trehalose synthase from Deinococcus radiodurans reveal that a closed conformation is involved in catalysis of the intramolecular isomerization” (Acta Crystallographica Section D: Biological Crystallography, 2014).
